We go through four compounds from article PMC5603865, “Synthesis, In-Vitro Activity and Metabolic Properties of Quinocetone and Structurally Similar Compounds” (Iranian Journal of Pharmaceutical Research : IJPR, 2017).

≈ marks a conversion by molar mass, not a printed value.

As a reminder, the MIC is the lowest concentration found to suppress growth. A word on the IC50: it is the concentration that inhibits the measured activity by half. High values mean weaker potency, low ones greater potency.

The test system of the first test is Aeromonas hydrophila. As to the kind of experiment: In-vitro antibacterial activity, MIC by broth dilution. The test is classed as cell-based. Particulars: Aeromonas hydrophila; broth dilution, 24 h; read-out: MIC values Aeromonas hydrophila. Here is the method: (§1) All test compounds were dissolved in dimethyl sulfoxide (DMSO, Sigma, USA) and then diluted in Dulbecco’s modified Eagle’s medium (DMEM, Gibco, USA) at desired concentrations for cell proliferation analyses or diluted in nutrient broth medium for antimicrobial susceptibility testing respectively. The final concentration of DMSO in the DMEM culture medium was under 0.1% (v:v).
(§2) The preliminary antibacterial activities were obtained for selected compounds against various bacteria, namely: Staphyloccocus aureus ATCC25923 (Gram-positive bacteria), Clostridium perfringen CVCC52,8604 (anaerobes bacteria), Salmonella pullorum (Gram-negative bacteria), Escherichia coli ATCC25922 (Gram negative bacteria) and Aeromonas hydrophila (Gram-negative bacteria) were used in the study. Each strain was cultured in appropriate broth medium. Clostridium perfringen was incubated in an anaerobic chamber. The minimum inhibitory concentration (MIC) for each test compound was estimated using the broth dilution method. The MIC’s was determined for each strain/compound pairs that presented antimicrobial activity. The method was modified from Mohapatra›s methods ([14], [15]). Cell suspensions were prepared in 2 mL of liquid medium with concentrations of various tests of compounds in 15 mL culture tubes by inoculation with 100 μL of 10^6 cfu/mL from each stock. The cultures were incubated at 28 °C or 37 °C for 24 h. Tubes showing no visible turbidity represented the MIC, and subsequently, were inoculated on the right side of the 9cm sterile nutrient agar plates without various test compounds and incubated for 24 h (Clostridium perfringen was incubated in an anaerobic chamber.). The least concentration, at which no growth was observed, represented the minimum bactericidal concentration (MBC) ([16]).
For `Cc1c(C(=O)/C=C/c2cccc(O)c2)[n+]([O-])c2ccccc2[n+]1[O-]` [Compound 3b], the minimal inhibitory concentration (MIC) was 206 µg/mL (≈ 639 µM).
With `CC(=O)c1c(C)[n+]([O-])c2ccccc2[n+]1[O-]` [Compound 2, 2-acetyl-3-methylquinoxaline-1,4-dioxide], the MIC came out at 17.4 µg/mL (≈ 79.9 µM).
Consider `COc1ccc(/C=C/C(=O)c2c(C)[n+]([O-])c3ccccc3[n+]2[O-])cc1` [Compound 3f], for which the minimum inhibitory concentration (MIC) was over 500 µg/mL.
Consider `CC(=O)c1nc2ccccc2nc1C` [Compound 4, 2-acetyl-3-methylquinoxaline], for which the minimum inhibitory concentration (MIC) stood at 119 µg/mL (≈ 639 µM).

A further test relates to Escherichia coli ATCC25922. The description is as above. In kind it is cell-based. Particulars: Escherichia coli, ATCC25922; broth dilution, 24 h; read-out: MIC values Escherichia coli ATCC25922. As for the experimental part: as §1, §2
(In general: Dilution methods test growth across graded concentrations, often in twofold steps.)
As to `Cc1c(C(=O)/C=C/c2cccc(O)c2)[n+]([O-])c2ccccc2[n+]1[O-]` [Compound 3b], the MIC came out at 103 µg/mL (≈ 320 µM).
Same read-out and setting: as for `CC(=O)c1c(C)[n+]([O-])c2ccccc2[n+]1[O-]` [Compound 2, 2-acetyl-3-methylquinoxaline-1,4-dioxide], the figure is 4.36 µg/mL (≈ 20 µM); as for `COc1ccc(/C=C/C(=O)c2c(C)[n+]([O-])c3ccccc3[n+]2[O-])cc1` [Compound 3f], over 500 µg/mL; as for `CC(=O)c1nc2ccccc2nc1C` [Compound 4, 2-acetyl-3-methylquinoxaline], over 500 µg/mL.

The subject of another test is Salmonella pullorum. The description is as above. In kind it is cell-based. The note with it: Salmonella enterica, PULLORUM, 24 h. Here is the method:
as §1, §2
Turning to `Cc1c(C(=O)/C=C/c2cccc(O)c2)[n+]([O-])c2ccccc2[n+]1[O-]` [Compound 3b], it took 25.8 µg/mL (≈ 79.9 µM) to inhibit growth (MIC).
`CC(=O)c1c(C)[n+]([O-])c2ccccc2[n+]1[O-]` [Compound 2, 2-acetyl-3-methylquinoxaline-1,4-dioxide] gave a minimum inhibitory concentration (MIC) of 17.4 µg/mL (≈ 79.9 µM).
In turn, `COc1ccc(/C=C/C(=O)c2c(C)[n+]([O-])c3ccccc3[n+]2[O-])cc1` [Compound 3f] returned an MIC of over 500 µg/mL.
Compound `CC(=O)c1nc2ccccc2nc1C` [Compound 4, 2-acetyl-3-methylquinoxaline] returned a minimum inhibitory concentration (MIC) of 476 µg/mL (≈ 2560 µM).

The next test concerns Staphyloccocus aureus ATCC25923. Described as above. The test is classed as cell-based. Particulars: broth dilution, 24 h; read-out: MIC values Staphyloccocus aureus ATCC25923. As for the experimental part:
as §1, §2
With `Cc1c(C(=O)/C=C/c2cccc(O)c2)[n+]([O-])c2ccccc2[n+]1[O-]` [Compound 3b], the minimal inhibitory concentration (MIC) is 12.9 µg/mL (≈ 40 µM).
Same read-out and setting: to `CC(=O)c1c(C)[n+]([O-])c2ccccc2[n+]1[O-]` [Compound 2, 2-acetyl-3-methylquinoxaline-1,4-dioxide] belongs 17.4 µg/mL (≈ 79.9 µM); to `COc1ccc(/C=C/C(=O)c2c(C)[n+]([O-])c3ccccc3[n+]2[O-])cc1` [Compound 3f], 13.4 µg/mL (≈ 40 µM); to `CC(=O)c1nc2ccccc2nc1C` [Compound 4, 2-acetyl-3-methylquinoxaline], over 500 µg/mL.

The test system of a further test is Clostridium perfringen CVCC52,8604. As to the kind of experiment: In-vitro antibacterial activity, MIC by broth dilution (anaerobic chamber). The note with it: Clostridium, 24 h. The test is classed as cell-based. Here is the method:
as §1, §2
`Cc1c(C(=O)/C=C/c2cccc(O)c2)[n+]([O-])c2ccccc2[n+]1[O-]` [Compound 3b]: inhibition of growth (MIC) required 51.5 µg/mL (≈ 160 µM).
On the same count and under the same terms, to `CC(=O)c1c(C)[n+]([O-])c2ccccc2[n+]1[O-]` [Compound 2, 2-acetyl-3-methylquinoxaline-1,4-dioxide] belongs 8.72 µg/mL (≈ 40 µM).
As to `COc1ccc(/C=C/C(=O)c2c(C)[n+]([O-])c3ccccc3[n+]2[O-])cc1` [Compound 3f], the MIC came out at 26.9 µg/mL (≈ 79.9 µM).
Same read-out and setting: as for `CC(=O)c1nc2ccccc2nc1C` [Compound 4, 2-acetyl-3-methylquinoxaline], the figure is over 500 µg/mL.

Another test relates to HepG2 cells. As to the kind of experiment: In-vitro cytotoxicity, MTT cell proliferation assay. The test is classed as cell-based, human. Particulars: 24 h incubation, concentration reducing viable cells by 50%. Here is the method:
as §1
(§3) HepG2 and normal human Chang liver cells were obtained from the Institute of Biochemistry and Cell Biology, Shanghai Institutes for Biological Sciences, Chinese Academy of Sciences (Shanghai, China). HepG2 and normal human Chang liver cells were cultured at 37˚Cwith 5% CO2 in DMEM supplemented with 2% L-glutamine, 10% fetal bovine serum (Gibco, USA), 100 U/mL penicillin and 100 […] (Gibco, USA).
(§4) The methodology for evaluating the cytotoxicity inhibitory activity of various test compounds towards cell proliferation has been described previously ([11], [17]). Cell proliferation inhibitory analyses were carried out using the 3-(4,5-dimethylthiazole-2-yl)-2,5-diphenyl tetrazolium bromide (MTT, Sigma, USA) assay. Briefly, cancers HepG2 and normal human Chang liver cells were harvested and resuspended in fresh growth medium. A 100 μL cell suspension (5 × 10^4 cells/mL) was aliquoted into each well of a 96-well culture plate. After 12 h incubation, the medium was replaced with fresh medium containing various concentrations of test compounds. The cells were then incubated for another 24 h. At the end of exposure, 10 μL of MTT solution (5 mg/mL) was added, and the cells were incubated for 4 h at 37 °C. The cells were treated with 100 μL DMSO, and absorbance was recorded at 570 nm using a microplate ELISA reader (ELX800, Bio-Tek, USA). All experiments were performed at least thrice, and data were presented as the mean of sixplicate wells ± standard deviation (SD). Cell inhibition was calculated as follows:
(§5) (OD of control group − OD of experimental group) / (OD of control group − OD of blank group) ×100%. The IC50 value for a compound was calculated using SPSS.
A general note: Formazan colour is commonly taken as a measure of viable cells.
As to `Cc1c(C(=O)/C=C/c2cccc(O)c2)[n+]([O-])c2ccccc2[n+]1[O-]` [Compound 3b], the IC50 was determined as 30.5 ± 1.3 µM.
In turn, `COc1ccc(/C=C/C(=O)c2c(C)[n+]([O-])c3ccccc3[n+]2[O-])cc1` [Compound 3f] came in with an IC50 of 99.7 ± 2.97 µM.

Still in this test, the particulars now being: Homo sapiens, HepG2, 24 h, 24 h incubation, concentration reducing viable cells by 50%.
Turning to `Cc1c(C(=O)/C=C/c2cccc(O)c2)[n+]([O-])c2ccccc2[n+]1[O-]` [Compound 3b], the half-maximal inhibitory concentration (IC50) is 30 µM.
For `CC(=O)c1c(C)[n+]([O-])c2ccccc2[n+]1[O-]` [Compound 2, 2-acetyl-3-methylquinoxaline-1,4-dioxide], half-maximal inhibition (IC50) required 288 ± 9.74 µM.
On to `COc1ccc(/C=C/C(=O)c2c(C)[n+]([O-])c3ccccc3[n+]2[O-])cc1` [Compound 3f], for which the IC50 was 99 µM.
For `CC(=O)c1nc2ccccc2nc1C` [Compound 4, 2-acetyl-3-methylquinoxaline], the concentration for half-maximal inhibition (IC50) came out at 572 ± 36.2 µM.

Another test concerns normal human Chang liver cells. The test is described as above. The test is classed as cell-based. The note with it: 24 h incubation, concentration reducing viable cells by 50%. Here is the method:
as §1, §3, §4, §5
In turn, `Cc1c(C(=O)/C=C/c2cccc(O)c2)[n+]([O-])c2ccccc2[n+]1[O-]` [Compound 3b] displayed an IC50 of 68 ± 2.9 µM.
`COc1ccc(/C=C/C(=O)c2c(C)[n+]([O-])c3ccccc3[n+]2[O-])cc1` [Compound 3f]: half-maximal inhibition (IC50) was put at 86.9 ± 6.3 µM.

Still in this test, the particulars now being: Homo sapiens, Chang liver, 24 h, 24 h incubation, concentration reducing viable cells by 50%.
For the compound `Cc1c(C(=O)/C=C/c2cccc(O)c2)[n+]([O-])c2ccccc2[n+]1[O-]` [Compound 3b], the half-inhibitory concentration (IC50) stood at 68 µM.
Same read-out and setting: to `CC(=O)c1c(C)[n+]([O-])c2ccccc2[n+]1[O-]` [Compound 2, 2-acetyl-3-methylquinoxaline-1,4-dioxide] belongs 263 ± 3.11 µM.
Still for that read-out and setting: to `COc1ccc(/C=C/C(=O)c2c(C)[n+]([O-])c3ccccc3[n+]2[O-])cc1` [Compound 3f] belongs 87 µM; to `CC(=O)c1nc2ccccc2nc1C` [Compound 4, 2-acetyl-3-methylquinoxaline], 672 ± 23.2 µM.

A further test has as its system Gram-positive and Gram-negative bacteria. As to the kind of experiment: Antibacterial activity class based on the MIC results. In kind it is cell-based.
Details: not given
As for the experimental part: as §2
In this study, activity of quinoxaline-1, 4-dioxides and their deoxygenations was tested against selected Gram-negative bacteria (Escherichia coli, Salmonella pullorum and Aeromonas hydrophila), Gram-positive bacteria (Staphyloccocus aureus and Clostridium perfringen). The in-vitro antibacterial activity was based on the MIC results: Strong antibacterial activity, if MIC is less than 50 μg/mL; Moderate, if MIC is in between 50 and 250 μg/mL; No activity, if MIC is more than 500 μg/mL.
Turning to `Cc1c(C(=O)/C=C/c2cccc(O)c2)[n+]([O-])c2ccccc2[n+]1[O-]` [Compound 3b], the “antibacterial activity against Gram-positive and Gram-negative bacteria” value was “strong or moderate activity”.
The same measure, in the same setting: as for `CC(=O)c1c(C)[n+]([O-])c2ccccc2[n+]1[O-]` [Compound 2, 2-acetyl-3-methylquinoxaline-1,4-dioxide], the entry is “strong or moderate activity”; as for `COc1ccc(/C=C/C(=O)c2c(C)[n+]([O-])c3ccccc3[n+]2[O-])cc1` [Compound 3f], “little or no activity”; as for `CC(=O)c1nc2ccccc2nc1C` [Compound 4, 2-acetyl-3-methylquinoxaline], “little or no activity”.
